The source of these data is ChEMBL document CHEMBL3045718, “Substituted 2-[2-(pyridin-3-yl) phenyl] acetamides and ureas: design, synthesis, and anticonvulsant screening in mice” (Med Chem Res, 2012).

One may read the ED50 as the dose that gives a 50% effect, or the effect in half of the subjects. What is called TD50 is the dose at which the toxic effect under study appears in half of the subjects.

Series [1] deals with Mus musculus. The series can be described thus: Anticonvulsant activity in Mus musculus Swiss albino (mouse) assessed as protection against subcutaneous pentylenetetrazol-induced clonic spasms at 300 mg/kg, ip after 0.5 hr post compound treatment. Format: functional, organism-based. Also on record: dose 300 mg/kg.
Series [2] relates to Mus musculus. Description: Anticonvulsant activity in Mus musculus Swiss albino (mouse) assessed as protection against maximal electroshock-induced seizures at 300 mg/kg, ip measured after 4 hr post compound treatment. Format: functional, organism-based. On the set-up: dose 300 mg/kg. (In the maximal electroshock model the usual endpoint is tonic extension of the hind limbs.)

The subject of series [3] is Mus musculus. The series can be described thus: Neurotoxicity in Mus musculus Swiss albino (mouse) assessed as motor impairment at 600 mg/kg, ip measured for 1 min by rotarod test. Type of series: toxicity, organism-based. Also on record: dose 600 mg/kg, route intraperitoneal. Particulars: in vivo. (Falling from the rotarod earlier than controls is read as motor impairment.)

In series [4] the test system is Mus musculus. Description: Anticonvulsant activity in Mus musculus Swiss albino (mouse) assessed as protection against subcutaneous pentylenetetrazol-induced clonic spasms at 300 mg/kg, ip after 4 hr post compound treatment. Format: functional, organism-based. Also on record: dose 300 mg/kg.
In series [5] the test system is Mus musculus. The series can be described thus: Neurotoxicity in Mus musculus Swiss albino (mouse) assessed as motor impairment at 100 mg/kg, ip measured for 1 min by rotarod test. Type of series: toxicity, organism-based. On the set-up: dose 100 mg/kg, route intraperitoneal. Particulars: in vivo.
The test system of series [6] is Mus musculus. The series can be described thus: Anticonvulsant activity in Mus musculus Swiss albino (mouse) assessed as protection against maximal electroshock-induced seizures at 300 mg/kg, ip measured after 0.5 hr post compound treatment. Type of series: functional, organism-based. Also on record: dose 300 mg/kg.
Series [7] has as its system Mus musculus. Description: Anticonvulsant activity in ip dosed Mus musculus Swiss albino (mouse) assessed as protection against maximal electroshock-induced seizures measured. Format: functional.
Series [8] in a line: Protective index, ratio of TD50 for neurotoxicity in Mus musculus Swiss albino (mouse) to ED50 for anticonvulsant activity in Mus musculus Swiss albino (mouse). Particulars: in vivo, read-out: Ratio TD50/ED50. Format: toxicity, organism-based.
The test system of series [9] is Mus musculus. The series can be described thus: Anticonvulsant activity in Mus musculus Swiss albino (mouse) assessed as protection against maximal electroshock-induced seizures at 30 mg/kg, ip measured after 4 hr post compound treatment. Also on record: dose 30 mg/kg. Format: functional, organism-based.
For series [10], the system named is Mus musculus. Description: Anticonvulsant activity in Mus musculus Swiss albino (mouse) assessed as protection against maximal electroshock-induced seizures at 30 mg/kg, ip measured after 0.5 hr post compound treatment. Type of series: functional, organism-based. On the set-up: dose 30 mg/kg.
Series [11] concerns Mus musculus. The series can be described thus: Anticonvulsant activity in Mus musculus Swiss albino (mouse) assessed as protection against subcutaneous pentylenetetrazol-induced clonic spasms at 30 mg/kg, ip after 4 hr post compound treatment. Type of series: functional, organism-based. Also on record: dose 30 mg/kg.
Series [12] deals with Mus musculus. The series can be described thus: Anticonvulsant activity in Mus musculus Swiss albino (mouse) assessed as protection against subcutaneous pentylenetetrazol-induced clonic spasms at 30 mg/kg, ip after 0.5 hr post compound treatment. Format: functional, organism-based. On the set-up: dose 30 mg/kg.
Series [13] in a line: Protective index, ratio of TD50 for neurotoxicity in Mus musculus Swiss albino (mouse) to ED50 for anticonvulsant activity in Mus musculus Swiss albino (mouse) measured 0.5 hr post compound treatment. Particulars: in vivo, read-out: Ratio TD50/ED50. Format: toxicity, organism-based.
The test system of series [14] is Mus musculus. The series can be described thus: Anticonvulsant activity in ip dosed Mus musculus Swiss albino (mouse) assessed as protection against maximal electroshock-induced seizures measured after 0.5 hr post compound treatment. Type of series: functional.
A short description of series [15]: Neurotoxicity in ip dosed Mus musculus Swiss albino (mouse) assessed as motor impairment measured after 0.5 hr post compound treatment for 1 min by rotarod test. Format: toxicity, organism-based. To be noted: in vivo.

Active and inactive are the calls of the source. The calls are words filed in the database; no cut-off is given here.

On to `O=C(NCc1ccccc1-c1cccnc1)NC1CCCCC1`, for which the outcome in the series with Mus musculus [1], in the series with Mus musculus [2], in the series on Mus musculus [4] and in the series with Mus musculus [6] was inactive. Besides, the values for the Activity result in the series with Mus musculus [3] and in the series on Mus musculus [5] were “Toxic” and “Non-toxic”, respectively.

In the case of `O=C1CCCN1C(=O)Cc1ccccc1Nc1ccccc1`, the median effective dose (ED50) in the series with Mus musculus [7] was 8 mg/kg. Moreover, the Activity entry is given as “Toxic” in the series on Mus musculus [3] and “Non-toxic” in the series on Mus musculus [5]. In series [8], the selectivity ratio was 87.5.

As to `NC(=O)N1c2ccccc2C=Cc2ccccc21` [CARBAMAZEPINE], the result with Mus musculus [9] and in the series on Mus musculus [10] was Active. In addition, the Activity result is given as “Toxic” in the series with Mus musculus [3] and “Non-toxic” in the series with Mus musculus [5].

As to `O=C1NC(=O)C(c2ccccc2)(c2ccccc2)N1` [PHENYTOIN], the result in the series with Mus musculus [9] and in the series with Mus musculus [10] was Active. For the same molecule, the Activity entry with Mus musculus [3] is given as “Toxic”; with Mus musculus [5], “Non-toxic”.

As to `NC(=O)NNC(=O)Cc1ccccc1-c1cccnc1`, the outcome with Mus musculus [1], in the series on Mus musculus [2], in the series with Mus musculus [4] and in the series with Mus musculus [6] was inactive. For the same molecule, the Activity entry in the series on Mus musculus [3] is given as “Toxic”; in the series with Mus musculus [5], “Non-toxic”.

`CC(C)(C)NC(=O)NCc1ccccc1-c1cccnc1`: the outcome with Mus musculus [1], in the series with Mus musculus [2], with Mus musculus [4] and with Mus musculus [6] was inactive. Also, the Activity result is “Toxic” in the series on Mus musculus [3] and “Non-toxic” with Mus musculus [5].

In the case of `CN1C(=O)CN=C(c2ccccc2)c2cc(Cl)ccc21` [DIAZEPAM], the result in the series on Mus musculus [11] and in the series on Mus musculus [12] was Active. The figures for the Activity entry in the series with Mus musculus [3] and with Mus musculus [5] were “Toxic” and “Non-toxic”, respectively.

For `NC(=S)NNC(=O)Cc1ccccc1-c1cccnc1`, the outcome with Mus musculus [1], in the series with Mus musculus [2], with Mus musculus [4] and in the series with Mus musculus [6] was inactive. The values for the Activity entry with Mus musculus [3] and in the series with Mus musculus [5] were “Toxic” and “Non-toxic”, respectively.

`CCC1(c2ccccc2)C(=O)NC(=O)NC1=O` [PHENOBARBITAL]: the outcome with Mus musculus [11] and with Mus musculus [12] was Active. Besides, the Activity result was “Toxic” in the series on Mus musculus [3] and “Non-toxic” in the series on Mus musculus [5].

Take `NC(=O)Cc1ccccc1-c1cccnc1`: the result in the series with Mus musculus [9] and in the series on Mus musculus [10] was Active. For the same molecule, in series [13], the selectivity ratio at 0.5 h was 26. Besides, the Activity result in the series on Mus musculus [3] is recorded as “Toxic”; in the series on Mus musculus [5], “Non-toxic”. Besides, the ED50 in the series on Mus musculus [14] stood at 8.28 mg/kg. Besides, the TD50 at 0.5 hr in series [15] amounted to 215 mg/kg.
